Test results: ChEMBL document CHEMBL1126433 (Bioorg Med Chem Lett, 1992)
One block for each compound: values may come before it. Active and inactive are the calls of the source. The calls are words filed in the database; no cut-off is given here.

Tests used:
[1] = molecular target: T1, Cyclooxygenase (Rattus norvegicus, UniProt P35355+Q63921); test: Compound was evaluated for its inhibitory activity against CO(cyclooxygenase) in intact RBL-1 cell line assay; assay type: cell-based
T1 sequence (P35355 whole entry): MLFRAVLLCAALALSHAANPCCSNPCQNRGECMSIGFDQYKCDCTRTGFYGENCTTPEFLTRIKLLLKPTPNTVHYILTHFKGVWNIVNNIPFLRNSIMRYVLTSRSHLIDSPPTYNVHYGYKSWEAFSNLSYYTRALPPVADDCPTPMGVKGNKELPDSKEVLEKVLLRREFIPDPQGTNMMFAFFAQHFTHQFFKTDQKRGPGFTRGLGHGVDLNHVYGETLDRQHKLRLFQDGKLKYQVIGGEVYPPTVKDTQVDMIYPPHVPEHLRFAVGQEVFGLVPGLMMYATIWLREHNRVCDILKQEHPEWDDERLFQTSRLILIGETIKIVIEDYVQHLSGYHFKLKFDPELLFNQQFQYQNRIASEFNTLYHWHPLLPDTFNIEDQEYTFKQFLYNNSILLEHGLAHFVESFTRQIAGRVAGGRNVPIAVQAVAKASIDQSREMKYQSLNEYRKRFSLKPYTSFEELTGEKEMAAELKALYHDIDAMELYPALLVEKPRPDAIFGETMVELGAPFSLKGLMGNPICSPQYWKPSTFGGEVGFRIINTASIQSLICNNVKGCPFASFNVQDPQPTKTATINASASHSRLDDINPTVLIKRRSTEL
T1 sequence (Q63921 whole entry): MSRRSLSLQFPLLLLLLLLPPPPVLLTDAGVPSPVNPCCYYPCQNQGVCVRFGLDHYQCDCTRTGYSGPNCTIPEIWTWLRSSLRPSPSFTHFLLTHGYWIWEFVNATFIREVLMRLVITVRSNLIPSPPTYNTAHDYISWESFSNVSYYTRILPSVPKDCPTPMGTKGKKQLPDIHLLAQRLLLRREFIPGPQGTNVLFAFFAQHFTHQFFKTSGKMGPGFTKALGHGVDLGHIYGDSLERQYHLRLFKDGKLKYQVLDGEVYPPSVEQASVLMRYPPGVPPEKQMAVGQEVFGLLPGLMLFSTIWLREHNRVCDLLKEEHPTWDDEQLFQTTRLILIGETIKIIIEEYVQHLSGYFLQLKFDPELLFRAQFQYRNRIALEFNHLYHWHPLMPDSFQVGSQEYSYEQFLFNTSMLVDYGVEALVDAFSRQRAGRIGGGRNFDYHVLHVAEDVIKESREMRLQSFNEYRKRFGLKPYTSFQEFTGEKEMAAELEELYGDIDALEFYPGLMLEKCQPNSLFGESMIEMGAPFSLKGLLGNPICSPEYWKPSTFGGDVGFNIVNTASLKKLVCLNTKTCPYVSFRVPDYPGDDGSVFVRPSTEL

[2] = molecular target: T2, Polyunsaturated fatty acid 5-lipoxygenase (Rattus norvegicus, UniProt P12527); test: Compound was evaluated for its inhibitory activity against 5-LO (5-lipoxygenase) in intact RBL-1 cell line assay; assay type: cell-based
T2 sequence (P12527 whole entry): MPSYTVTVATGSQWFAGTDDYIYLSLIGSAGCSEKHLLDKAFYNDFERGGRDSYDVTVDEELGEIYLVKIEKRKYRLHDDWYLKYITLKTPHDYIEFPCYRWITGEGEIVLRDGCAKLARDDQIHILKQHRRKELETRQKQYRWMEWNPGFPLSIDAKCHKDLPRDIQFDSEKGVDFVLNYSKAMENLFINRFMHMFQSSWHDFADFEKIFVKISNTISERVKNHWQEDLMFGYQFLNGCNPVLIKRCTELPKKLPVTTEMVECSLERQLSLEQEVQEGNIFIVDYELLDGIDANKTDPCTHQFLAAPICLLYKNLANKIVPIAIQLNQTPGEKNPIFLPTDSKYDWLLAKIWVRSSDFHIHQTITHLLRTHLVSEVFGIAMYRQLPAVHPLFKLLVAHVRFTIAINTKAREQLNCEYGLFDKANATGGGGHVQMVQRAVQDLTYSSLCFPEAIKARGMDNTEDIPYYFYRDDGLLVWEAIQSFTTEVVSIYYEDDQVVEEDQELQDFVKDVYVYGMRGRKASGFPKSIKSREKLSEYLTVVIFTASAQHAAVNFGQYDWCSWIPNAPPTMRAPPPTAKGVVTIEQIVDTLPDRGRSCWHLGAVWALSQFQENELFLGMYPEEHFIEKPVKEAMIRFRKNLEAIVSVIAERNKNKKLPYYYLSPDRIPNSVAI

[3] = molecular target: T3, Cyclooxygenase (Rattus norvegicus) (UniProt P35355+Q63921); test: Compound was evaluated for its inhibitory activity against CO(cyclooxygenase) at 10 uM concentration in intact RBL-1 cell line assay; assay type: cell-based
[4] = molecular target: T3, Cyclooxygenase (Rattus norvegicus); test: Compound was evaluated for its inhibitory activity against CO(cyclooxygenase) at 10 uM concentration in intact RBL-1 cell line assay; Less than 5% inhibition at 10 uM reported as not active; assay type: cell-based
[5] = molecular target: T4, Polyunsaturated fatty acid 5-lipoxygenase (Rattus norvegicus) (UniProt P12527); test: Compound was evaluated for its inhibitory activity against 5-LO (5-lipoxygenase) at 10 uM concentration in intact RBL-1 cell line assay; assay type: cell-based
T4 sequence (whole entry): T2 sequence (P12527 whole entry)

[6] = molecular target: T1, Cyclooxygenase; test: Compound was evaluated for its inhibitory activity against CO(cyclooxygenase); assay type: protein assay
[7] = molecular target: T4, Polyunsaturated fatty acid 5-lipoxygenase (Rattus norvegicus); test: Compound was evaluated for its inhibitory activity against 5-LO (5-lipoxygenase) at 10 uM concentration in intact RBL-1 cell line assay; Less than 5% inhibition at 10 uM reported as not active; assay type: cell-based

IC50 [1]: 10.2 µM | IC50 [2]: 1500 nM
SMILES: Cc1ccc(Cl)c(Nc2ccccc2/C=C2\SC(NC#N)=NC2=O)c1Cl

inhibition [3]: 33%
SMILES: Cc1ccc(Cl)c(Nc2ccccc2/C=C2\SC(=S)N(CC(=O)O)C2=O)c1Cl

inhibition [4]: inactive | inhibition [5]: 30%
SMILES: Cc1ccc(Cl)c(Nc2ccccc2/C=C2\SC(=O)NC2=O)c1Cl

IC50 [2]: > 100000 nM
SMILES: COc1ccc2c(c1)c(CC(=O)O)c(C)n2C(=O)c1ccc(Cl)cc1 [INDOMETHACIN]

IC50 [1]: 2 µM | IC50 [2]: 1400 nM
SMILES: COc1ccc2c(c1)c(/C=C1/SC(=S)NC1=O)c(C)n2C(=O)c1ccc(Cl)cc1

IC50 [6]: 6 µM
SMILES: Cc1ccc(Cl)c(Nc2ccccc2/C=C2\SC(=S)NC2=O)c1Cl

inhibition [3]: 32% | inhibition [7]: inactive
SMILES: Cc1ccc(Cl)c(Nc2ccccc2/C=C2\SC(=S)N(C)C2=O)c1Cl

inhibition [3]: 20% | inhibition [5]: 35%
SMILES: Cc1ccc(Cl)c(Nc2ccccc2/C=C2\SC(N)=NC2=O)c1Cl
